This note sets out measurements from US7998989B2, “2-Imino-1,3-thiazoline-based compounds and T-type calcium channel inhibitors containing the same” (Korea Institute of Science and Technology, priority 2007, dated 2011).

By melting point is commonly meant the temperature, or range, at which the solid turns liquid.

Data set [1] concerns the target T1, α1G T-type calcium channel (Homo sapiens, UniProt O43497).
T1 construct: host or cells: HEK293
The data set can be described thus: Assay for % inhibiting activity against T-type calcium channel using FDSS6000 (fluo-3 calcium imaging, KCl activation). It counts as cell-based. Here is the method: In the present invention, in order to examine an efficient inhibitor against the T-type calcium channel, a primary assay for T-type calcium channel inhibiting activity was conducted by a high-efficient assay using FDSS6000, wherein mammal HEK293 cell lines (originated from human kidney carcinoma cells) that specifically express α1G of the T-type calcium channel was used for primary assay. Through the primary assay, compounds that show meaningful inhibition effects were selected. The selected compounds were used in a second assay for T-type calcium channel inhibiting activity using an electrophysiological whole cell patch clamp method, wherein mammal HEK293 cell lines (originated from human kidney carcinoma cells) that specifically express α1G of the T-type calcium channel was used for the second assay. Mibefradil, which had been developed as a T-type calcium channel inhibitor, was used as a reference.
At 12-24 hours before being used for this assay, cells of HEK293 cell line (α1G cell line: KCTC 10519BP, Korean Collection for Type Cultures), which stably express α1G T-type calcium channel and Kir2.1, were sub-cultured in a poly-L-lysine treated 96-well plate with the density of 4×10^4 per well using a 96-well cell dispenser (Titertek). On the day of assay, the 96-well plate to which the cells were attached was washed three times with HEPES buffer solution (150 mM of NaCl, 5 mM of KCl, 1 mM of MgCl2, 2 mM of CaCl2, 10 mM of HEPES, 10 mM of glucose; pH 7.4) using a 96-well plate automatic washing device (Bio Tek), then reacted with HEPES buffer solution containing 5 μM fluo-3/AM and 0.001% Pluronic F-127 at room temperature for 1 hour, to label with fluorescent dye, and then further washed two times with HEPES buffer solution.
Thereafter, at 10 minutes before the measurement using device FDSS6000, washing with HEPES buffer solution containing 10 mM CaCl2 was conducted once more, and the final volume was adjusted to 81 μl. Besides the above 96-well plate containing the cells, two additional drug 96-well plates were provided, wherein the 96-well plates contained an inhibiting drug and KCl (final concentration: 75 mM) for activating the T-type calcium channel, respectively. Since most of cell-based HTS devices are equipped with a liquid application system for injection of drug, but have no liquid sucking system, the inhibiting drug to be tested and KCl were respectively provided at a five-times higher concentration in 10 mM CaCl2 HEPES buffer solution at the amount of 27 μl, diluted by five-times at the final cell plate volume of 135 μl, and then used in this test. The concrete method of measurement using FDSS6000 was as follows. After recording the reference value of 20 seconds, the change of intracellular Ca^2+ concentration that was induced by treatment of the inhibiting drug to be tested for 75 seconds followed by administration of KCl was measured, wherein the percentage (%) inhibition effect of the test drug, through estimating the area of ratio value of 340/380 in the control without treatment of the test drug, was 100%. As a reference drug, 10 μM mibefradil was used.
For accurate calcium imaging, the light source of 4 xenon lamps in FDSS6000 were radiated to selectively expose the cells to the excitation wavelength (340 nm and 380 nm) by a computer-controlled filter wheel. Data was obtained at intervals of 1.23 seconds. The emitter fluorescence light inflowed through a long-pass filter was obtained as an average 340/380 ratio value for each well in the 96-wells by using a CCD camera and a digital fluorescence analyzer in FDSS6000. All image data and analyses were obtained by using a FDSS6000-exclusive program from Hamamatsu Photonics.
The obtained results are shown in Table 2 (the results from the compounds according to the examples of the present invention) and Table 3 (the results from the compounds according to the comparative example where R6 is a phenyl group) [FDSS (% inhibition) 10 μM].

The mark [2] stands for this setting: 10 μM, FDSS (% inhibition), comparative compounds where R6 is a phenyl group, read-out: FDSS.
The mark [3] stands for this setting: HEK293, 10 μM, HEK293 cells stably expressing α1G T-type calcium channel and Kir2.1, compounds of the examples, read-out: FDSS (% inhibition)/10uM.

Where two headings read alike, the source gives them in different places.

T1 sequence (O43497 whole entry): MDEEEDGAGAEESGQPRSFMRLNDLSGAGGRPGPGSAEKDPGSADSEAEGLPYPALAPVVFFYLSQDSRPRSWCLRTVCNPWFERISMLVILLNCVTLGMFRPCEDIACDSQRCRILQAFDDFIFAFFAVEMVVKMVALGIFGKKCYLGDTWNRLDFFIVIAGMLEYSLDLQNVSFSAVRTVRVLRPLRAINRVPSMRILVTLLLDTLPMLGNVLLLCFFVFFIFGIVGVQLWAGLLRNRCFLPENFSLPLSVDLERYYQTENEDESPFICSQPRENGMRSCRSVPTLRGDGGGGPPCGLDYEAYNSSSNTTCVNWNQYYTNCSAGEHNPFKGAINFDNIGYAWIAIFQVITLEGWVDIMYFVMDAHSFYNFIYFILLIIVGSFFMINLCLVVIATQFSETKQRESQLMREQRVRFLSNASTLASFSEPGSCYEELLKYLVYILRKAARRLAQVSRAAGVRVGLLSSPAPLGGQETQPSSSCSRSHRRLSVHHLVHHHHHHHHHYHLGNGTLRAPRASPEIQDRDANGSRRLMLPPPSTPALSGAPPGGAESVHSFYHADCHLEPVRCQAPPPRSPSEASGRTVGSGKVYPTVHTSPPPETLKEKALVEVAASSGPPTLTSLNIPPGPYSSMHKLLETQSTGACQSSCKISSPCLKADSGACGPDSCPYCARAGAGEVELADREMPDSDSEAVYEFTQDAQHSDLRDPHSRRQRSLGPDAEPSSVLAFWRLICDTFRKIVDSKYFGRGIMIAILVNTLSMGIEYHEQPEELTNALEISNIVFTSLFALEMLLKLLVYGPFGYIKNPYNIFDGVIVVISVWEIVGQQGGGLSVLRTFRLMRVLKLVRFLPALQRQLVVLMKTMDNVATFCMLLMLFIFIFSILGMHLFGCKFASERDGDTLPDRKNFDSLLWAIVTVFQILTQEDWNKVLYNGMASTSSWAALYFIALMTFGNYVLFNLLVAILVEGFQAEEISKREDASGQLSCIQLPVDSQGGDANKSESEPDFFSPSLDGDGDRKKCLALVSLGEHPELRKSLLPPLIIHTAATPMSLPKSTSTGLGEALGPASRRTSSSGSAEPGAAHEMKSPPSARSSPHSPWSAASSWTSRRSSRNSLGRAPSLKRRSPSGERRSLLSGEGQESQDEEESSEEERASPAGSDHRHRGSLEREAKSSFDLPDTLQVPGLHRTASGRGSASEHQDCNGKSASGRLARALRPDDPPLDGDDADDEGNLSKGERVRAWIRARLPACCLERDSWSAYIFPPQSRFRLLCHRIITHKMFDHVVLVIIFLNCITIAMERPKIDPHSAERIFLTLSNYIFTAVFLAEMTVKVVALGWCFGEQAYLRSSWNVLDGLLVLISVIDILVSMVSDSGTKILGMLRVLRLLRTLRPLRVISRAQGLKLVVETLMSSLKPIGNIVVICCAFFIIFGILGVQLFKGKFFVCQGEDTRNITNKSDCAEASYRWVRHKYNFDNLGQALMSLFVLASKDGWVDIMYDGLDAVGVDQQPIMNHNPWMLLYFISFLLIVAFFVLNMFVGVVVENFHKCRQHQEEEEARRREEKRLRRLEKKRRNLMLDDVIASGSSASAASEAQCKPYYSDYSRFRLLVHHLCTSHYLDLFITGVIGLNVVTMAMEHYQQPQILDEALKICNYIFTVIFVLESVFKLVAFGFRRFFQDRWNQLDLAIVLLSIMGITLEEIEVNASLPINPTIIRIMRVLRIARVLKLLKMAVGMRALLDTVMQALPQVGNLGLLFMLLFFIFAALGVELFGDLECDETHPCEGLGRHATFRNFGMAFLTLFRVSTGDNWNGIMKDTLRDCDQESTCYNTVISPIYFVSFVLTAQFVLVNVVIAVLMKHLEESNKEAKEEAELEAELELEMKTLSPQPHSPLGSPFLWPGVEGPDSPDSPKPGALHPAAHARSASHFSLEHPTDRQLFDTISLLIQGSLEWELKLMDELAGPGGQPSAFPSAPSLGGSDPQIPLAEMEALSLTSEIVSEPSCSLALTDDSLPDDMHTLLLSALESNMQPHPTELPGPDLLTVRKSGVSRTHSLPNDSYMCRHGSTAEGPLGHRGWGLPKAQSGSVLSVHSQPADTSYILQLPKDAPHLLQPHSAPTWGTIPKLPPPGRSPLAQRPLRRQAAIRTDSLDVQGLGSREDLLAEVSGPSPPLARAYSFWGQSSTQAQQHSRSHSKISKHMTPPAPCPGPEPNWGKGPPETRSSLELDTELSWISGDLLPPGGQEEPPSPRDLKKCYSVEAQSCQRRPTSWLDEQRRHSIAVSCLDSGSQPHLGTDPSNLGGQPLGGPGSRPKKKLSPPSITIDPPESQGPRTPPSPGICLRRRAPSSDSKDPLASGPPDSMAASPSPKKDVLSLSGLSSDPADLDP

As for `CC(C)c1ccc(N=C2SCC(CC(=O)Nc3ccc(Cl)cc3F)N2C)cc1.Cl` (centres unmarked) [KHG23071, [2-(4-isopropylphenylimino)-3-methyl-1,3-thiazolidine-4-yl]-N-(4-chloro-2-fluorophenyl)-acetamide hydrochloride], the melting point fell in the range of 237 to 238 °C. Also, the inhibition at 10 µM in data set [1] (setting [2]) worked out at 15.5%.
For `CCc1ccc(N=C2SCC(CC(=O)Nc3ccc(Cl)cc3F)N2C)cc1.Cl` (centres unmarked) [KHG23072, [2-(4-ethylphenylimino)-3-methyl-1,3-thiazolidine-4-yl]-N-(4-chloro-2-fluorophenyl)-acetamide hydrochloride] the same measures were 242 °C and 29.4%.
For `CN1C(=Nc2ccc(-c3ccccc3)cc2)SCC1CC(=O)Nc1ccc(Cl)cc1F.Cl` (centres unmarked) [KHG23073, [2-(4-phenylphenylimino)-3-methyl-1,3-thiazolidine-4-yl]-N-(4-chloro-2-fluorophenyl)-acetamide hydrochloride] the same measures were 222 to 223 °C and 28.3%.
For the compound `COc1ccc(NC(=O)CC2CSC(=NC3CCCCC3)N2C)cc1Cl.Cl` (centres unmarked) [KHG24070, (2-cyclohexylimino-3-methyl-1,3-thiazolidine-4-yl)-N-(3-chloro-4-methoxyphenyl)-acetamide hydrochloride], the melting point fell in the range of 233.5 to 235 °C. In data set [1] (setting [3]), the inhibition at 10 µM came to 53%.
`Cc1cc(Cl)c(NC(=O)CC2CSC(=NC3CCCCC3)N2C)cc1Cl.Cl` (centres unmarked) [KHG24071, (2-cyclohexylimino-3-methyl-1,3-thiazolidine-4-yl)-N-(2,5-dichloro-4-methylphenyl)-acetamide hydrochloride]: the melting point turned out to be 146 °C. In addition, the inhibition at 10 µM in data set [1] (setting [3]) was 52.1%.
For `CN1C(=NC2CCCCC2)SCC1CC(=O)Nc1ccc(C(C)(C)C)cc1.Cl` (centres unmarked) [KHG24073, (2-cyclohexylimino-3-methyl-1,3-thiazolidine-4-yl)-N-(4-t-butylphenyl)-acetamide hydrochloride] the same measures were 234 to 235.5 °C and 57.3%.
For `COc1cccc(NC(=O)CC2CSC(=NC3CCCCC3)N2C)c1.Cl` (centres unmarked) [KHG24076, (2-cyclohexylimino-3-methyl-1,3-thiazolidine-4-yl)-N-(3-methoxyphenyl)-acetamide hydrochloride] the same measures were 156 to 158 °C and 39.9%.
Consider `CN1C(=NC2CCCCC2)SCC1CC(=O)Nc1ccc(F)cc1F.Cl` (centres unmarked) [KHG24081, (2-cyclohexylimino-3-methyl-1,3-thiazolidine-4-yl)-N-(2,4-difluorophenyl)-acetamide hydrochloride], for which the melting point fell in the range of 206 to 208 °C. The inhibition at 10 µM in data set [1] (setting [3]) is 38.3%.
For `Cc1ccccc1CNC(=O)CC1CSC(=NC2CCCCC2)N1C.Cl` (centres unmarked) [KHG24082, (2-cyclohexylimino-3-methyl-1,3-thiazolidine-4-yl)-N-(2-methylbenzyl)-acetamide hydrochloride] the same measures were 220 to 221 °C and 37.4%.
For `CCOC(=O)CCOc1cccc(NC(=O)CC2CSC(=NC3CCCCC3)N2C)c1.Cl` (centres unmarked) [KHG24085, (2-cyclohexylimino-3-methyl-1,3-thiazolidine-4-yl)-N-(3-ethoxycarbonylethoxyphenyl)-acetamide hydrochloride], the melting point fell in the range of 241 to 242 °C. The inhibition at 10 µM in data set [1] (setting [3]) came out at 52.6%.
For `CN1C(=NC2CCCCC2)SCC1CC(=O)NCc1ccc(Cl)c(Cl)c1.Cl` (centres unmarked) [KHG24088, (2-cyclohexylimino-3-methyl-1,3-thiazolidine-4-yl)-N-(3,4-dichlorobenzyl)-acetamide hydrochloride] the same measures were 215 to 216 °C and 43.2%.
For `COc1ccc(NC(=O)CC2CSC(=NC3CCCCC3)N2C)cc1OC.Cl` (centres unmarked) [KHG24090, (2-cyclohexylimino-3-methyl-1,3-thiazolidine-4-yl)-N-(3,4-dimethoxyphenyl)-acetamide hydrochloride] the same measures were 233 to 234 °C and 32.1%.
For `Cc1ccc(NC(=O)CC2CSC(=NC3CCCCC3)N2C)cc1F.Cl` (centres unmarked) [KHG24091, (2-cyclohexylimino-3-methyl-1,3-thiazolidine-4-yl)-N-(3-fluoro-4-methylphenyl)-acetamide hydrochloride] the same measures were 210 to 212 °C and 30.3%.
`CN1C(=NC2CCCC2)SCC1CC(=O)Nc1ccc(F)cc1Cl.Cl` (centres unmarked) [KHG24095, (2-cyclopentylimino-3-methyl-1,3-thiazolidine-4-yl)-N-(2-chloro-4-fluorophenyl)-acetamide hydrochloride] came in with a melting point of 209 to 210.5 °C. Besides, in data set [1] (setting [3]), the inhibition at 10 µM is 30.5%.
As to `CN1C(=NC2CCCC2)SCC1CC(=O)Nc1ccc(Br)cc1.Cl` (centres unmarked) [KHG24098, (2-cyclopentylimino-3-methyl-1,3-thiazolidine-4-yl)-N-(4-bromophenyl)-acetamide hydrochloride], the melting point is 228 to 228.5 °C. In addition, the inhibition at 10 µM in data set [1] (setting [3]) was determined as 50.5%.
`CN1C(=NC2CCCC2)SCC1CC(=O)Nc1ccc(Oc2ccccc2)cc1.Cl` (centres unmarked) [KHG24099, (2-cyclopentylimino-3-methyl-1,3-thiazolidine-4-yl)-N-(4-phenoxyphenyl)-acetamide hydrochloride] had a melting point of 230 to 230.5 °C. In addition, the inhibition at 10 µM in data set [1] (setting [3]) is 58.2%.
For `CN1C(=NC2CCCC2)SCC1CC(=O)Nc1cc(Cl)cc(Cl)c1.Cl` (centres unmarked) [KHG24100, (2-cyclopentylimino-3-methyl-1,3-thiazolidine-4-yl)-N-(3,5-dichlorophenyl)-acetamide hydrochloride] the same measures were 231 to 232.5 °C and 60.8%.
For `CN1C(=NC2CCCC2)SCC1CC(=O)Nc1cc(Cl)ccc1F.Cl` (centres unmarked) [KHG24103, (2-cyclopentylimino-3-methyl-1,3-thiazolidine-4-yl)-N-(5-chloro-2-fluorophenyl)-acetamide hydrochloride] the same measures were 214 to 216 °C and 45%.
For `CN1C(=NC2CCCC2)SCC1CC(=O)Nc1cc([N+](=O)[O-])ccc1F.Cl` (centres unmarked) [KHG24104, (2-cyclopentylimino-3-methyl-1,3-thiazolidine-4-yl)-N-(2-fluoro-5-nitrophenyl)-acetamide hydrochloride] the same measures were 234.5 to 236 °C and 34.3%.
Turning to `CN1C(=NC2CCCC2)SCC1CC(=O)Nc1ccc(Cl)cc1F.Cl` (centres unmarked) [KHG24105, (2-cyclopentylimino-3-methyl-1,3-thiazolidine-4-yl)-N-(4-chloro-2-fluorophenyl)-acetamide hydrochloride], the melting point lay in the range of 228 to 230.5 °C. In addition, the inhibition at 10 µM in data set [1] (setting [3]) is 40.4%.
For `CN1C(=NC2CCCC2)SCC1CC(=O)Nc1ccc(Cl)cc1.Cl` (centres unmarked) [KHG24106, (2-cyclopentylimino-3-methyl-1,3-thiazolidine-4-yl)-N-(4-chlorophenyl)-acetamide hydrochloride] the same measures were 215 to 216 °C and 49.4%.
For `CN1C(=NC2CCCCC2)SCC1CC(=O)Nc1cccc([N+](=O)[O-])c1.Cl` (centres unmarked) [KHG24108, (2-cyclohexylimino-3-methyl-1,3-thiazolidine-4-yl)-N-(3-nitrophenyl)-acetamide hydrochloride], the melting point was 207 °C. In addition, in data set [1] (setting [3]), the inhibition at 10 µM was determined as 44.4%.
